In patent publication US20010014444A1, “Gene regulator fusion proteins and methods of using the same for determining resistance of a protein to a drug targeted thereagainst” (priority 1998, published 2001):

Assays:
[1] = tested on: HIV-PR variants expressing the resistance-conferring mutations V82T or I84V; assay: Colony color assay with site directed HIV-PR variants of known genotype; type: cell-based; settings: plate with indinavir (MK-639) and Bluogal; only colonies with V82T or I84V variants were white; whiter with V82T and I84V than with V82T
Protocol: Site directed mutagensis was used to construct HIV-PR gene variants encoding the mutations 1) [D25E] […] These variant genes were put into fusion protein expression plasmids in the manner set forth in Example 1, and the resulting fusion protein expression plasmids and a β-galactosidase reporter plasmid expression were subcloned into E. coli, which were then plated on indicator media designed to report E. coli having HIV-PR activity as white colonies and E. coli without HIV-PR activity as blue colonies.
In the method of the present invention, β-galactosidase activity is regulated indirectly by activity of the HIV-PR in the fusion protein expression plasmid. All the E. coli cells used were identical and expressed similar HIV-PR-LacI fusion proteins, except that the HIV-PR genotype is different for different colonies.

[2] = tested on: inactive HIV protease (164) [D25E] (pL448.2); assay: Blue/white colony color assay, HIV-PR-LacI fusion protein / β-galactosidase reporter two plasmid system; type: cell-based; settings: E. coli containing pL448.2; Bluogal indicator media with arabinose inducer, supplemented with indinavir at various concentrations; also blue without indinavir
Protocol: Three E. coli strains, each containing a reporter plasmid for expression of β-galactosidase, and a HIV-PR-LacI expression plasmid for expression of a HIV-PR-LacI fusion protein, were tested using the blue/white color assay of the present invention. These strains were designed to be identical except for mutations within the HIV-PR regions, as set forth below:
Plasmid pL446.1 expresses a fusion protein containing HIV-PR and the LacI gene repressor. Expression is mediated by the ARAB promoter/operator and expression is induced by addition of arabinose sugar to the growth medium.
Media plates were prepared by adding to standard Luria Broth Agar, per liter of Luria Broth Agar, 2,000 μl of 100 mg/ml Ampicillin, 800 μl of 34 mg/ml Chloramrphenicol, 1 ml 1M IPTG. Similarly, indicator media was prepared by adding Bluogal (Life Technologies Inc.) to the media, 16.8 ml Bluogal stock (2% in dimethyl formamide) per liter of Luria Broth Agar. […] The E. coli strains were then plated onto the indicator media and allowed to grow for about 16 hours.

CC(C)(C)NC(=O)[C@@H]1CN(Cc2cccnc2)CCN1C[C@@H](O)C[C@@H](Cc1ccccc1)C(=O)N[C@H]1c2ccccc2C[C@H]1O [indinavir]
color of E. coli colonies on plate with indinavir and color indicator [1]: white
color of E. coli colonies on indicator media [2]: blue
